Assay results from patent US4692511A, “Peptide antagonists for the C5a anaphylatoxin” (Immunetech Pharmaceuticals, priority 1984, dated 1987).
Peptide text beside a SMILES is read from it.

Target: T1, C5a receptor (Homo sapiens, UniProt P21730)
T1 sequence (P21730 1-350): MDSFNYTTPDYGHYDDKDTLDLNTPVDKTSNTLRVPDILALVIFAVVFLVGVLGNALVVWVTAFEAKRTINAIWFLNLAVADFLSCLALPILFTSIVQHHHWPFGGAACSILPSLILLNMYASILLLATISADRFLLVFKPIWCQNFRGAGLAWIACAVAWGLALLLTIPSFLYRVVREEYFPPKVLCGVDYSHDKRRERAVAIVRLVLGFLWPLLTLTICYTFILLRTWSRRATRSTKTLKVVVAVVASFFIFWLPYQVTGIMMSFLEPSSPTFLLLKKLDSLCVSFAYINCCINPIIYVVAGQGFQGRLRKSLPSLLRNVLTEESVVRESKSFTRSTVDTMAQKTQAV
Test: C5a receptor blocking activity of the peptides of the invention

C5a blocking activity: displays C5a blocking activity
Compound: C[C@H](NC(=O)CNC(=O)[C@@H](N)CC(=O)O)C(=O)O [Asp-Gly-Ala] (H-Asp-Gly-Ala-OH)
